Reference: US10654815B2, “Urea compound and preparation method and application thereof” (SHENZHEN CHIPSCREEN BIOSCIENCES CO., LTD., priority 2016, dated 2020)

What was measured:
[1] = target: T1, PD-1/PD-L1 binding (UniProt Q9NZQ7); test: In-vitro PD-1/PD-L1 binding inhibition (HTRF); set-up: species or system human; details: His-PD-1 100 nM, PD-L1-Fc 2 nM final, read-out: IC50 on inhibiting PD-1/PD-L1 binding in-vitro
T1 construct: fused on or other part: human IgG Fc (hFc tag) fused to PD-L1
Text: Main Principle of the Experiment (HTRF)
Homogeneous Time-Resolved Fluorescence (HTRF): The PD-1 protein carried an His tag and the Fc fusion protein of its ligand PD-L1 carried an hFc tag. An anti-hFc antibody labeled with a chelating marker of Eu element and an anti-His antibody labeled with XL66 were respectively combined with two corresponding tags. After laser excitation (320 nm), energy was transferred from the donor Eu to the acceptor XL665, so that the XL665 emitted light (665 nm). […] The basic detection principle was as follows (see FIG. 3):
The His-tagged human recombinant PD-1 protein (Cat#: 80448-R08H-100) and human recombinant PD-L1-Fc fusion protein (Cat#: 90251-CO2H-100) were purchased from Sino Biological Inc., and the anti-hFc-Eu3^+ and anti-His-XL665 antibody were purchased from Cisbio. Other related reagents such as dilution buffer, detection buffer were all purchased from Cisbio. The fluorescence detection instrument Tecan (Spark 10M) was purchased from Tecan, Switzerland.
The experimental process was carried out in accordance with the procedure required by the instruction manual for the test reagent […]. The process was as follows:
(1) Preparation of the experiment: The test compound was diluted to a different concentration gradient with a dilution buffer (the maximum final concentration was 10 μM in 20 μL final reaction system), the His-PD-1 protein was diluted to 800 nM (the final concentration was 100 nM in 20 μL final reaction system), and the PD-L1-Fc fusion protein was diluted to 16 nM (the final concentration was 2 nM). The anti-His-XL665 antibody and the anti-hFc-Eu^3+ antibody were diluted 20-fold and 100-fold, respectively, with the test diluent according to the reagent requirements.
(2) 5 μL of the test compound, 2.5 μL of PD-L1 protein and 2.5 μL of PD-1 protein solution were evenly mixed, and then reacted at room temperature for 15 min. Subsequently, 5 μL of anti-His-XL665 antibody and 5 μL of anti-hFc-Eu^3+ antibody were added to the system, and the incubation was continued for 3 hours followed by detection.
(3) At the same time of detection of the reaction, control groups were set, including a 0-inhibited positive control to which no test compound was added, and a negative control to which no PD-1 protein was added. All tests were run in duplicate.
(4) The fluorescence signal of each well was detected by a fluorescence detector Tecan (Spark 10M) with an excitation wavelength of 320 nm and detected emission wavelengths of 620 nm and 665 nm, respectively. The intensity of PD-1/PD-L1 binding to each other referred to the fluorescence signal ratio Em665/Em620.
(5) Formula for calculating the binding inhibition rate of test compounds: inhibition rate (%)=[1−(ratio of fluorescence signals of detection holes−negative control)/(ratio of fluorescence signals of 0-inhibited positive control−negative control)×100%. After calculating the binding inhibition rate of the test compounds with different concentration gradients, the 50% inhibitory concentration (IC50) was further calculated.

[2] = test system: T cell leukemia cell line (Jurkat cell); test: Cytotoxic activity, MTS assay in T cell line; format: cell-based; details: Homo sapiens, Jurkat cells, compound 2 μM, 72 h, relative to solvent control (DMSO)
Text: In order to rule out the biological function changes of T cell caused by cytotoxic effects of the compounds themselves, MTS assay was used as a routine cytotoxicity detection method. The basic principle was that the dehydrogenase in the living cell mitochondria was capable of metabolizing and reducing the new type yellow […] compound MTS to formazan. The amount of formazan product measured at 490 nm absorbance (OD) was directly proportional to the number of viable cells in the culture, and thus whether the test compound itself had the ability of inhibiting cell growth or killing cells can be judged basing on the OD value.
In this experiment, the T cell leukemia cell line (Jurkat cell) was evaluated for its cell growth activity according to the MTS assay.
The MTS was carried out in a 96-well plate according to a routine experimental procedure.
Cell lines were inoculated into a 96-well plate at an appropriate concentration (approximately 20,000 cells/well), test compounds (final concentration 2 μM) were added, and at the same time solvent control (DMSO) and negative control wells were set, and the well was set in triplicate. The cells were further cultured for 72 h followed by detection.
After the culture, 20 μL of the a pre-prepared mixture of MTS and PMS (mixed in a ratio of 20:1) was added directly to the culture well, and incubated in a 37° C. incubator for 2 h, and then detection was conducted using a microplate reader (490 nm).
The background value of the negative control was subtracted, and the relative cell activity (%) of the test compound on cell growth=(OD value of the test well/OD value of the solvent control well)×100%.

[3] = test system: PD-1/PD-L1 interaction in human peripheral mononuclear cells (PBMC); test: PD-1 signal inhibition at cellular level: IL-2 secretion of SEB-stimulated PBMC (ELISA); format: cell-based; details: SEB 200 ng/mL-stimulated volunteer PBMC, compound 2 μM, 96 h; compared to anti-human PD-1 antibody (5 μg/mL)

## Cc1c(COc2ccc(CNCCNC(=O)NCCN3CCOCC3)c(OCc3cccc(C#N)c3)c2)cccc1-c1ccccc1 [Compound I-1, 1-((2-(2-(3-cyanophenyl)methoxy-4-(2-methyl-(1,1′-diphenyl)-3-yl-methoxy))benzylamino)-2-ethyl)-3-(2-(N-morpholine)ethyl)urea]
[1]
  IC50: 1710 nM
[2]
  activity at 2 µM: 102%

## Cc1c(COc2ccc(CNCCNC(=O)NCCO)c(OCc3cccc(C#N)c3)c2)cccc1-c1ccccc1 [Compound I-2, 1-((2-(2-(3-cyanophenyl)methoxy-4-(2-methyl-(1,1′-diphenyl)-3-yl-methoxy))benzylamino)-2-ethyl)-3-(2-hydroxyethyl)urea]
[1]
  IC50: 581 nM
[2]
  activity at 2 µM: 100%

## Cc1c(COc2ccc(CNCCNC(=O)N[C@@H](COC(C)(C)C)C(=O)OC(C)(C)C)c(OCc3cccc(C#N)c3)c2)cccc1-c1ccccc1 [Compound I-3, 1-((2-(2-(3-cyanophenyl)methoxy-4-(2-methyl-(1,1′-diphenyl)-3-yl-methoxy))benzylamino)-2-ethyl)-3-(2-tert-butyl-O-tert-butyl-L-serinate-2-yl)urea]
[1]
  IC50: 3120 nM
[2]
  activity at 2 µM: 99.7%

## Cc1cc(CNCCNC(=O)NCCO)c(OCc2cncc(C#N)c2)cc1OCc1cccc(-c2ccc3c(c2)OCCO3)c1C#N [Compound I-4]
[1]
  IC50: 37.5 nM
[2]
  activity at 2 µM: 93.2%

## Cc1cc(CNCCNC(=O)NC(CO)(CO)CO)c(OCc2cncc(C#N)c2)cc1OCc1cccc(-c2ccc3c(c2)OCCO3)c1C#N [Compound I-5]
[1]
  IC50: 36.4 nM
[2]
  activity at 2 µM: 94.6%
[3]
  Activity of promoting IL-2 (%): 53%

## C=C(NC(=O)NCCNCc1cc(C)c(OCc2cccc(-c3ccc4c(c3)OCCO4)c2C#N)cc1OCc1cncc(C#N)c1)C(=O)O [Compound I-6]
[1]
  IC50: 70.2 nM
[2]
  activity at 2 µM: 92.1%
[3]
  Activity of promoting IL-2 (%): 56.3%

## Cc1cc(CNCCOCCNC(=O)NCCO)c(OCc2cncc(C#N)c2)cc1OCc1cccc(-c2ccc3c(c2)OCCO3)c1C#N [Compound I-7]
[1]
  IC50: 43.7 nM
[2]
  activity at 2 µM: 94.5%
[3]
  Activity of promoting IL-2 (%): 58.1%

## Cc1cc(CNCCNC(=O)NCCN2CCOCC2)c(OCc2cncc(C#N)c2)cc1OCc1cccc(-c2ccc3c(c2)OCCO3)c1C#N [Compound I-8]
[1]
  IC50: 61 nM
[2]
  activity at 2 µM: 95.1%

## Cc1cc(CNCCOCCNC(=O)NCCS(C)(=O)=O)c(OCc2cncc(C#N)c2)cc1OCc1cccc(-c2ccc3c(c2)OCCO3)c1C#N [Compound I-9]
[1]
  IC50: 28.1 nM
[2]
  activity at 2 µM: 99.6%

## Cc1cc(CNCCOCCNC(=O)NCCN(C)C)c(OCc2cncc(C#N)c2)cc1OCc1cccc(-c2ccc3c(c2)OCCO3)c1C#N [Compound I-10]
[1]
  IC50: 73.3 nM
[2]
  activity at 2 µM: 97.1%

## Cc1cc(CNCCNC(=O)NCCN(C)C)c(OCc2cncc(C#N)c2)cc1OCc1cccc(-c2ccc3c(c2)OCCO3)c1C#N [Compound I-11]
[1]
  IC50: 76.1 nM
[2]
  activity at 2 µM: 95.6%
[3]
  Activity of promoting IL-2 (%): 51.7%

## Cc1cc(CNCCNC(=O)NCCS(C)(=O)=O)c(OCc2cncc(C#N)c2)cc1OCc1cccc(-c2ccc3c(c2)OCCO3)c1C#N [Compound I-12]
[1]
  IC50: 49.1 nM
[2]
  activity at 2 µM: 91.6%

## Cc1cc(CNCCNC(=O)N[C@@H](CO)C(=O)O)c(OCc2cncc(C#N)c2)cc1OCc1cccc(-c2ccc3c(c2)OCCO3)c1C#N [Compound I-13]
[1]
  IC50: 15.8 nM
[2]
  activity at 2 µM: 91.1%

## C=CC(=O)NCCNC(=O)NCCNCc1cc(C)c(OCc2cccc(-c3ccc4c(c3)OCCO4)c2C#N)cc1OCc1cncc(C#N)c1 [Compound I-14]
[1]
  IC50: 197 nM
[2]
  activity at 2 µM: 102%
